The values that follow come from article PMC7007424 (Neurotherapeutics, 2019).

Each structure is given as a SMILES string.

One data set deals with hepatoma HepG2 cells. Kind of data set: hepatotoxicity, HepG2 cell viability. The data set is classed as cell-based.
The test system of data set [1] is PTZ-induced clonic seizures in mice. Conditions: i.p., cited from earlier work.
In data set [2] the test system is PTZ-kindled mice. Details: method as in PMID 30247871. Conditions: former study, ref [13]; cited from earlier work.
In data set [3] the test system is 6-Hz (32 mA) psychomotor seizures. Conditions: mice, i.p., cited from earlier work; for anticonvulsant activity in 6 Hz, 32 mA: known AED profile, Fig. 1.
For data set [4], the system named is maximal electroshock (MES) seizure. Conditions: mice, i.p.; known AED profile, Fig. 1; cited from earlier work.
Another data set has as its system 6-Hz seizures. Further details: method as in PMID 28449218. The settings on record: 6-Hz test; ref [17]; cited from earlier work.
The test system of data set [5] is mice. Kind of data set: passive avoidance task. The settings on record: i.p. 30 min before, AS-1 81.12 mg/kg, VPA […], combination AS-1 27.6 + VPA 59.9 mg/kg. The data set is classed as in vivo.
Data set [6] relates to mice. Kind of data set: grip strength test. The data set is classed as in vivo. Conditions: i.p. 30 min before, AS-1 81.12 mg/kg, VPA […], combination AS-1 27.6 + VPA 59.9 mg/kg. From the text:
The time before the commencement of the grip strength test (after drug administration) was identical to that of the PTZ test. This experimental procedure has been described in detail in our earlier studies.

Data set [7] concerns mice. Kind of data set: chimney test. The data set is classed as in vivo. Conditions: i.p. 30 min before, AS-1 81.12 mg/kg, VPA […], combination AS-1 27.6 + VPA 59.9 mg/kg. The text has this:
[31]’s chimney test. The pretreatment time for AS-1 and VPA in the chimney test was identical to that of the PTZ test. This experimental procedure has been described in detail in our earlier studies.

Data set [8] has as its system PTZ-kindled mice. Kind of data set: forced swim test in PTZ-kindled mice. The settings on record: repeated i.p. injection, AS-1 15–60 mg/kg, VPA 150 mg/kg, vs kindled control. Format: in vivo. Here is the method: Twenty-four hours after the last PTZ injection (on day 34), mice were subjected to the locomotor activity test, the elevated plus maze test, and the forced swim test. Forty-eight hours after the last PTZ injection (on day 35) the i.v. PTZ seizure threshold test was performed. The forced swim test was used to assess the depressive-like behavior in kindled animals. The procedure was performed as described in detail elsewhere.

The test system of data set [9] is PTZ-induced clonic seizures in mice. Kind of data set: s.c. PTZ-induced clonic seizure test, with isobolographic analysis. The data set is classed as in vivo.
Experimental: Following PTZ administration, mice were placed separately in transparent Plexiglas cages (25 cm × 15 cm × 10 cm) and observed for 30 min for the occurrence of clonic seizures. Clonic seizure activity was defined as the clonus of the whole body lasting for over 3 s, with an accompanying loss of righting reflex.
To determine the ED50 mix value, both drugs in the mixture (at proportionally raised doses) were administered to the mice and a dose–response relationship for the mixture was denoted using Litchfield and Wilcoxon [25]’s log-probit method. • Statistical comparison of the experimentally derived ED50 mix values with their corresponding theoretically additive ED50 add values was undertaken using the unpaired Student’s t test, according to Tallarida [30]. • Graphical illustration of the examined interactions as isobolograms (i.e., simple forms of interaction visualizations).
Data set [10] relates to PTZ-kindled mice. Kind of data set: elevated plus maze test in PTZ-kindled mice. Format: in vivo. The settings on record: repeated i.p. injection, AS-1 15–60 mg/kg, VPA 150 mg/kg. Here is the method: Twenty-four hours after the last PTZ injection (on day 34), mice were subjected to the locomotor activity test, the elevated plus maze test, and the forced swim test. Forty-eight hours after the last PTZ injection (on day 35) the i.v. PTZ seizure threshold test was performed. The elevated plus maze test was used to assess the anxiety-like behavior in kindled animal, as described in detail in our previous study.

Data set [11] deals with PTZ-induced kindling in mice. Kind of data set: PTZ-induced kindling. Format: in vivo. Conditions: 33 daily i.p. injections; AS-1 15, 30 and 60 mg/kg, VPA 150 mg/kg; PTZ 40 mg/kg i.p. every 48 h, 17 injections; vs PTZ-kindled control. The procedure: All suspensions and solutions were prepared freshly and administered in a constant volume of 0.1 ml per 10 g of body weight. In all experiments, AS-1 and VPA were injected i.p. Control animals received vehicles only. […] After each PTZ injection, mice were placed separately into transparent cages for 30 min for behavioral observation to assign an appropriate seizure score. […] After each PTZ injection, the mean seizure severity score for each experimental group was calculated. Non-kindled (control) mice were treated as kindled animals, except that they were injected with normal saline instead of PTZ. Experimental grouping for PTZ kindling was as follows: […]

Data set [12] has as its system PTZ-kindled mice. Kind of data set: locomotor activity test in PTZ-kindled mice. Format: in vivo. Conditions: repeated i.p. injection, AS-1 15–60 mg/kg, VPA 150 mg/kg, day 34. Here is the method: Twenty-four hours after the last PTZ injection (on day 34), mice were subjected to the locomotor activity test, the elevated plus maze test, and the forced swim test. Forty-eight hours after the last PTZ injection (on day 35) the i.v. PTZ seizure threshold test was performed. Spontaneous locomotor activity of mice was monitored using the […] system supported by SedaCom32 software (Panlab/Harvard Apparatus, Barcelona, Spain) according to the method described in detail elsewhere.

As for `N#CC(C#N)=NNc1cccc(Cl)c1` [CCCP, carbonyl cyanide 3-chlorophenylhydrazone, reference compound], in the data set on hepatoma HepG2 cells (10 μM), the “HepG2 cells' viability” value is listed as ~ 40 % of control.

As for `COc1cccc2c1C(=O)c1c(O)c3c(c(O)c1C2=O)C[C@@](O)(C(=O)CO)C[C@@H]3O[C@H]1C[C@H](N)[C@H](O)[C@H](C)O1` [DX, doxorubicin, reference compound], in the data set on hepatoma HepG2 cells (1 μM), the “HepG2 cells' viability” value is on record as ~ 40 % of control.

With `CCC1(C)CC(=O)NC1=O` (centres unmarked) [ETX, ethosuximide], the “anticonvulsant activity in scPTZ” value in [1] (known AED profile, Fig. 1) is on record as “active”.

Consider `CC(C(=O)N1CCN(c2cccc(C(F)(F)F)c2)CC1)N1C(=O)CCC1=O` (centres unmarked) [KA-11, 1-(1-oxo-1-(4-(3-(trifluoromethyl)phenyl)piperazin-1-yl)propan-2-yl)pyrrolidine-2,5-dione], for which the “effect on depressive-like behavior caused by PTZ-induced kindling” value in the data set on PTZ-kindled mice [2] was “prevented the depressive-like behavior”.

`COC[C@@H](NC(C)=O)C(=O)NCc1ccccc1` [LCS, lacosamide, reference compound]: the “anticonvulsant activity in 6 Hz, 32 mA” value in data set [3] is given as “active”. Further, in data set [4], the “anticonvulsant activity in MES” value is reported as “active”.

On to `CC[C@@H](C(N)=O)N1CCCC1=O` [LEV, levetiracetam], for which, in data set [3], the “anticonvulsant activity in 6 Hz, 32 mA” value is on record as “active”. The “ED50 at 44 mA versus ED50 at 32 mA stimulus intensity” value in the data set with 6-Hz seizures was “at least 50 times”.

As to `CCCC(CCC)C(=O)O` [VPA, valproic acid, reference compound], the “ED50 (6 Hz, 32 mA)” value in data set [3] (ref [10], [12]) is recorded as 130.65 mg/kg. In the data set with mice [5], the “Retention time, median (25th; 75th percentiles)” value was 180 (180; 180) s. Further, in the data set on mice [6], the “Muscular strength, mean grip strength ± SEM” value was 104.7 ± 2.8 g. In the data set on mice [7], the “Motor coordination, percentage of animals showing motor coordination impairment” value is 12.5%. Moreover, in [1] (earlier study, ref [10], [12]), the “ED50 (s.c. PTZ)” value is on record as 239.45 mg/kg. Moreover, the “effect on total immobility duration” value in the data set on PTZ-kindled mice [8] is “significantly decreased the immobility time”. Moreover, the “protection against PTZ-induced clonic seizures” value in data set [9] (125 mg/kg i.p.) was found to be 12.5%; in [9] (150 mg/kg i.p.) it was 37.5%; in [9] (200 mg/kg i.p.), 62.5%. Besides, the “effect on percentage of open arm entries and percentage of time spent in open arms” value in the data set with PTZ-kindled mice [10] is given as “did not produce any significant changes”. The “effect on kindling development (mean seizure severity score)” value in data set [11] was “suppressed kindling progression”. Further, the “effect on spontaneous locomotor activity” value in the data set on PTZ-kindled mice [12] is “did not affect locomotor activity”.
